For orientation: IC50 means the concentration that inhibits the measured activity by half.

The target of one assay is T1, PKC epsilon (Homo sapiens, UniProt Q02156).
T1 construct: purchased Invitrogen P2282
T1 sequence (Q02156 1-737): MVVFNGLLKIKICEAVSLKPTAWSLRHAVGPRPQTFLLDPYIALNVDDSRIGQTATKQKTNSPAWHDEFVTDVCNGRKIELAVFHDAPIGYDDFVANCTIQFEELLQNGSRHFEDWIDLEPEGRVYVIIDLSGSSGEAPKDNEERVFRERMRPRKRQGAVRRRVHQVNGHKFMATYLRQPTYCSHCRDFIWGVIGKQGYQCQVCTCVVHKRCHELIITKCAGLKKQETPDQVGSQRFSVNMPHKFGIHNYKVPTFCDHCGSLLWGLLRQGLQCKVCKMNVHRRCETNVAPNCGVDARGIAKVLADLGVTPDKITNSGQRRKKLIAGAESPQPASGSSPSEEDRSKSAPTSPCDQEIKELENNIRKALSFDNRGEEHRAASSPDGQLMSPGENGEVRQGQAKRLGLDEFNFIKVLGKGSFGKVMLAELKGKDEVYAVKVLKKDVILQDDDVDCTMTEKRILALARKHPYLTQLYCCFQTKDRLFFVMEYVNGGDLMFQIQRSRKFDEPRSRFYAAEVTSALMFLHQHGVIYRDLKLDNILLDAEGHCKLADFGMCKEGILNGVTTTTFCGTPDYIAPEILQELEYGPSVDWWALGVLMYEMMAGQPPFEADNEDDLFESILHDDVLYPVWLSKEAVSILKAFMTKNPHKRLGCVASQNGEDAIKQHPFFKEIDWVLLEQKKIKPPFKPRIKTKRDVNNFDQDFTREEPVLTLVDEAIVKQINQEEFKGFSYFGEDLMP
As to the kind of experiment: Biochemical assay for PKC epsilon (fluorescence polarization, Protein Kinase C Assay Kit, Red). As to conditions: read-out: IC50 μM PKCε. Summed up: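 Read-out was fluorescence-polarization competition between phosphorylated substrate and a rhodamine PKC tracer for an anti-phosphoserine antibody, added with EDTA stop after an 80 min room-temperature kinase reaction with ATP and protein substrate (Mg2+/Ca2+ buffer). Enzyme (10 ng/ml final) was preincubated with compound for 30 min.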

The next assay addresses T2, human ROCKα/ROCKII mix (Homo sapiens, UniProt O75116).
T2 construct: purchased Upstate Biotechnology 14-451
As to the kind of experiment: Biochemical assay for ROCK (fluorescence polarization, ROCK IMAP Kit). A general note: Fluorescence polarisation rises when a labelled molecule tumbles more slowly, as on binding a larger partner.

The mark [1] stands for this setting: Table 2, compounds of Formula XIII.
[2] abbreviates: compounds of Formula XIV, Table 3.

Counter-ions that a name gives are not always drawn. Like-named read-outs stand apart in the source and are kept apart here.

T2 sequence (O75116 11-552 limits assumed): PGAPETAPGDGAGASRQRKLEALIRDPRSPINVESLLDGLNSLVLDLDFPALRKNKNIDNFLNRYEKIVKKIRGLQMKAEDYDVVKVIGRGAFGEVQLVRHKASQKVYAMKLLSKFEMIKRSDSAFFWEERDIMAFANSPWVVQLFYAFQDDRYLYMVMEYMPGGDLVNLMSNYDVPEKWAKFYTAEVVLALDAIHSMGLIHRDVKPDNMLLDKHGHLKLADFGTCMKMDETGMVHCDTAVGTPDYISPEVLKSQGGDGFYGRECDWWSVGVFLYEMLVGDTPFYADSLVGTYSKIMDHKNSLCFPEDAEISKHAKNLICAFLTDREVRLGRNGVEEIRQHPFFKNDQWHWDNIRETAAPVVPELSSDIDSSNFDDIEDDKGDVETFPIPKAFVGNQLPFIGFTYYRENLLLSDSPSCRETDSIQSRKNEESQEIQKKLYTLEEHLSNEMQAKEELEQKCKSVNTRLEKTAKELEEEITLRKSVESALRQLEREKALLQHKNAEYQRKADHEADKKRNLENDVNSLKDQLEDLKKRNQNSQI

For the compound `NC(c1ccc(C(=O)Nc2ccncc2)cc1)C1CCCN1C(=O)Cc1cccc(Cl)c1F` (centres unmarked) [Compound 602, 4-(Amino-{1-[2-(3-chloro-2-fluoro-phenyl)-acetyl]-pyrrolidin-2-yl}-methyl)-N-pyridin-4-yl-benzamide], the IC50 fell in the range of 5 to 50 µM at PKC epsilon and 0.5 to 5 µM on human ROCKα/ROCKII mix.
Take `NC(CNC(=O)c1ccc(Oc2ccccc2)cc1)c1ccc(C(=O)Nc2ccncc2)cc1` (centres unmarked) [Compound 78, 4-[1-amino-2-(4-phenoxy-benzoylamino)-ethyl]-N-pyridin-4-yl-benzamide]: the IC50 at PKC epsilon (setting [1]) was in the range of 5 to 50 µM; on human ROCKα/ROCKII mix (setting [1]) it was 0.5 to 5 µM.
As to `N[C@@H](CNC(=O)C1(c2ccc(Cl)cc2)CC1)c1ccc(C(=O)Nc2ccncc2)cc1` [Compound 398, 4-((R)-1-Amino-2-{[1-(4-chloro-phenyl)-cyclopropanecarbonyl]-amino}-ethyl)-N-pyridin-4-yl-benzamide dihydrochloric acid salt], the 50% inhibitory concentration (IC50) at PKC epsilon and at human ROCKα/ROCKII mix was 0.5 to 5 µM each time.
In the case of “4-{1-Amino-2-[methyl-(1- thiophen-2-yl- cyclopropanecarbonyl)- amino]-ethyl}- N-pyridin-4-yl-benzamide [Compound 448]”, the IC50 at PKC epsilon lay in the range of 5 to 50 µM; against human ROCKα/ROCKII mix, 0.5 to 5 µM.
Turning to “Bicyclo[4.2.0]octa-1(6),2,4- triene-7-carboxylic acid {2- amino-2-[4-(pyridin-4- ylcarbamoyl)-phenyl]-ethyl}- methyl-amide [Compound 451]”, the IC50 on PKC epsilon lay within 5 to 50 µM; at human ROCKα/ROCKII mix, 0.05 to 0.5 µM.
The like results for `NC(c1ccc(C(=O)Nc2ccncc2)cc1)C1CCCN1C(=O)Cc1cccc2ccccc12` (centres unmarked) [Compound 536, 4-{Amino-[1-(2-naphthalen-1-yl-acetyl)-pyrrolidin-2-yl]-methyl}-N-pyridin-4-yl-benzamide] were, in that order, 0.5 to 5 µM and 0.5 to 5 µM.
For “4-{1-Amino-2-[(furan-2- ylmethyl)-carbamoyl]-ethyl}- N-pyridin-4-yl-benzamide [Compound 278]”, the IC50 lay in the range of 0.5 to 5 µM on PKC epsilon (setting [2]) and 0.05 to 0.5 µM against human ROCKα/ROCKII mix (setting [2]).
Consider `CC(C)(C)NC(=O)NCC(N)c1ccc(C(=O)Nc2ccncc2)cc1` (centres unmarked) [Compound 3, 4-[1-amino-2-(3-tert-butyl-ureido)-ethyl]-N-pyridin-4-yl-benzamide], for which the IC50 on PKC epsilon and against human ROCKα/ROCKII mix was 0.5 to 5 µM throughout.
On to `COc1cccc(CC(=O)NCC(N)c2ccc(C(=O)Nc3ccncc3)cc2)c1` (centres unmarked) [Compound 139, 4-{1-amino-2-[2-(3-methoxy-phenyl)-acetylamino]-ethyl}-N-pyridin-4-yl-benzamide], for which the IC50 at PKC epsilon (setting [1]) fell in the range of 0.5 to 5 µM; against human ROCKα/ROCKII mix (setting [1]) it was 0.05 to 0.5 µM.
As for `CC1CC1C(=O)NCC(N)c1ccc(C(=O)Nc2ccncc2)cc1` (centres unmarked) [Compound 40, 4-{1-Amino-2-[(2-methyl-cyclopropanecarbonyl)-amino]-ethyl}-N-pyridin-4-yl-benzamide], the IC50 at PKC epsilon (setting [1]) and on human ROCKα/ROCKII mix (setting [1]) was 0.5 to 5 µM each time.
As for `NC(c1ccc(C(=O)Nc2ccncc2)cc1)C1CCCN1C(=O)Cc1ccc(F)c(Cl)c1` (centres unmarked) [Compound 603, 4-(Amino-{1-[2-(3-chloro-4-fluoro-phenyl)-acetyl]-pyrrolidin-2-yl}-methyl)-N-pyridin-4-yl-benzamide], the IC50 at PKC epsilon is 0.5 to 5 µM; at human ROCKα/ROCKII mix it was 0.05 to 0.5 µM.
Regarding `N[C@H](CNC(=O)C1(c2ccc(F)cc2)CCCC1)c1ccc(C(=O)Nc2ccncc2)cc1` [Compound 417, 4-((S)-1-Amino-2-{[1-(4-fluoro-phenyl)-cyclopentanecarbonyl]-amino}-ethyl)-N-pyridin-4-yl-benzamide dihydrochloric acid salt], the IC50 at PKC epsilon is under 0.05 µM; against human ROCKα/ROCKII mix, 0.05 to 0.5 µM.
As to `NC(CNC(=O)c1ccoc1)c1ccc(C(=O)Nc2ccncc2)cc1` (centres unmarked) [Compound 119, Furan-3-carboxylic acid {2-amino-2-[4-(pyridin-4-ylcarbamoyl)-phenyl]-ethyl}-amide], the IC50 fell in the range of 0.5 to 5 µM on PKC epsilon (setting [1]) and 0.05 to 0.5 µM at human ROCKα/ROCKII mix (setting [1]).
The like results for `NC(CNC(=O)Cc1ccc(F)c(F)c1)c1ccc(C(=O)Nc2ccncc2)cc1` (centres unmarked) [Compound 167, 4-{1-Amino-2-[2-(3,4-difluoro-phenyl)-acetylamino]-ethyl}-N-pyridin-4-yl-benzamide dihydrochloride] were, in that order, 0.05 to 0.5 µM and 0.05 to 0.5 µM.
The like results for `CCOCC(=O)NCC(N)c1ccc(C(=O)Nc2ccncc2)cc1` (centres unmarked) [Compound 62, 4-[1-amino-2-(2-ethoxy-acetylamino)-ethyl]-N-pyridin-4-yl-benzamide] were, in that order, 5 to 50 µM and 0.5 to 5 µM.
Regarding `CC(C)(C(=S)NCC(N)c1ccc(C(=O)Nc2ccncc2)cc1)c1ccc(F)cc1` (centres unmarked) [Compound 419, 4-{1-Amino-2-[2-(4-fluoro-phenyl)-2-methyl-thiopropionylamino]-ethyl}-N pyridin-4-yl-benzamide dihydrochloric acid salt], the IC50 on PKC epsilon was under 0.05 µM; against human ROCKα/ROCKII mix, 0.05 to 0.5 µM.
As to `COc1cccc2cc(C(=O)NCC(N)c3ccc(C(=O)Nc4ccncc4)cc3)oc12` (centres unmarked) [Compound 133, 7-Methoxy-benzofuran-2-carboxylic acid {2-amino-2-[4-(pyridin-4-ylcarbamoyl)-phenyl]-ethyl}-amide], the IC50 on PKC epsilon (setting [1]) was in the range of 5 to 50 µM; at human ROCKα/ROCKII mix (setting [1]) it was 0.05 to 0.5 µM.
In the case of `NC(c1ccc(C(=O)Nc2ccncc2)cc1)C1CCCN1C(=O)Cc1ccccc1F` (centres unmarked) [Compound 567, 4-(Amino-{1-[2-(2-fluoro-phenyl)-acetyl]-pyrrolidin-2-yl}-methyl)-N-pyridin-4-yl-benzamide], the values for the IC50 on PKC epsilon and against human ROCKα/ROCKII mix were 5 to 50 µM and 0.05 to 0.5 µM, respectively.
As to “Chroman-4-carboxylic acid {2-amino-2-[4-(pyridin-4- ylcarbamoyl)-phenyl]-ethyl}- methyl-amide [Compound 514]”, the figures for the IC50 at PKC epsilon and on human ROCKα/ROCKII mix were 5 to 50 µM and 0.5 to 5 µM, respectively.
The like results for “4-(1-Amino-2-{[2-(4-chloro- phenyl)-3-methyl-butyryl]- methyl- amino}-ethyl)- N-pyridin-4-yl-benzamide [Compound 461]” were, in that order, 5 to 50 µM and 0.5 to 5 µM.
On to “4-{1-amino-2-[2-(4-methy)- octanoylamino]-ethyl}-N-pyridin-4-yl- benzamide [Compound 37]”, for which the IC50 on PKC epsilon (setting [1]) was 0.5 to 5 µM; against human ROCKα/ROCKII mix (setting [1]) it was 0.05 to 0.5 µM.
On to `CN(CC(N)c1ccc(C(=O)Nc2ccncc2)cc1)C(=O)C1CCCc2ccccc21` (centres unmarked) [Compound 512, 1,2,3,4-Tetrahydro-naphthalene-1-carboxylic acid {2-amino-2-[4-(pyridin-4-ylcarbamoyl)-phenyl]-ethyl}-methyl-amide], for which the IC50 on PKC epsilon was 5 to 50 µM; on human ROCKα/ROCKII mix, 0.5 to 5 µM.
For `CC(NC(=O)CC(N)c1ccc(C(=O)Nc2ccncc2)cc1)c1ccccc1` (centres unmarked) [Compound 215, 4-[1-Amino-2-(1-phenyl-ethylcarbamoyl)-ethyl]-N-pyridin-4-yl-benzamide], the IC50 was 0.5 to 5 µM at PKC epsilon (setting [2]) and 0.05 to 0.5 µM at human ROCKα/ROCKII mix (setting [2]).
With `NC(c1ccc(C(=O)Nc2ccncc2)cc1)C1CCCN1C(=O)Cc1c(F)cccc1F` (centres unmarked) [Compound 584, 4-(Amino-{1-[2-(2,6-difluoro-phenyl)-acetyl]-pyrrolidin-2-yl}-methyl)-N-pyridin-4-yl-benzamide], the IC50 at PKC epsilon lay in the range of 5 to 50 µM; on human ROCKα/ROCKII mix it was 0.5 to 5 µM.
As for `NC(CNC(=O)c1cc2ccccc2[nH]1)c1ccc(C(=O)Nc2ccncc2)cc1` (centres unmarked) [Compound 130, 1H-Indole-2-carboxylic acid {2-amino-2-[4-(pyridin-4-ylcarbamoyl)-phenyl]-ethyl}-amide], the IC50 lay in the range of 5 to 50 µM at PKC epsilon (setting [1]) and 0.5 to 5 µM at human ROCKα/ROCKII mix (setting [1]).
In the case of `N[C@H](CNC(=O)C1(c2ccc(Cl)cc2)CC1)c1ccc(C(=O)Nc2ccncc2)cc1` [Compound 397, 4-((S)-1-Amino-2-{[1-(4-chloro-phenyl)-cyclopropanecarbonyl]-amino}-ethyl)-N-pyridin-4-yl-benzamide dihydrochloric acid salt], the IC50 was under 0.05 µM at PKC epsilon and 0.05 to 0.5 µM against human ROCKα/ROCKII mix.
For `N[C@@H](CC(=O)N[C@@H]1CCCc2ccccc21)c1ccc(C(=O)Nc2ccncc2)cc1` [Compound 374, 4-{(S)-1-Amino-2-[(R)-(1,2,3,4-tetrahydro-naphthalen-1-yl)carbamoyl]-ethyl}-N-pyridin-4-yl-benzamide dihydrochloric acid salt], the IC50 at PKC epsilon was in the range of 0.5 to 5 µM; on human ROCKα/ROCKII mix, 0.05 to 0.5 µM.
Take “4-[1-Amino-2-(methyl- phenylacetyl-amino)-ethyl]- N-pyridin-4-yl-benzamide [Compound 420]”: the IC50 on PKC epsilon fell in the range of 5 to 50 µM; at human ROCKα/ROCKII mix it was 0.5 to 5 µM.

Values taken from patent US20100168102A9, “Amide Derivatives as Kinase Inhibitors” (Devgen NV, priority 2005, published 2010).
